Source: patent US20030144360A1, “Composition and method for modulating BAR/FXR receptor activity” (Allergan Sales, Inc., priority 2001, published 2003)

How the values were obtained:
Caco-2 cells = assay: Northern blot analysis of BAR/FXR target genes in differentiated Caco-2 cells; type: cell-based, human; conditions: for IBABP expression / SHP expression: 10 μM, 24 hours
Experimental: Caco-2 cells were maintained for 20 days post-confluence to allow differentiation. They were fed twice a week with their regular media during this period.
(§1) One day prior to treatment, confluent HepG2 and differentiated Caco-2 cells were switched to phenol red-free media containing resin-charcoal stripped FBS and then treated for and additional 24 hours with the indicated compounds. Total RNA was isolated using the Trizol reagent. Northern blots were prepared from polyA^+ RNA using the Oligotex method (Qiagen) and analyzed with the following probes: human CYP7A (accession #M93133) nucleotides 1617-2576 (Karam and Chiang, 185 Biochem. Biophys. Res. Commun. 588 (1992)), human SHP (accession #L76571) nucleotides 888-1355, human IBABP (accession # A1311734), an EST containing the entire coding sequence of IBABP.
(§2) We next tested the ability of AGN 29 and AGN 31 to regulate BAR/FXR target genes. We used the hepatoma cell line HepG2 as a hepatocyte model as this cell line has been used extensively to study cholesterol metabolism and bile acid-mediated gene regulation. We monitored the expression of two well known BAR/FXR target genes: CYP7A, the rate-limiting enzyme for bile acid synthesis, is down regulated by bile acids in HepG2 cells.

[1] = molecular target: T1, BAR/FXR (BAR-RXR heterodimer) (UniProt P19793+Q62735); assay: Transient cotransfection luciferase reporter assay, full-length BAR/FXR and RXR in CV-1 cells; design: repression of the BAR/RXR heterodimer: dose or concentration left out as unconfirmed; conditions: for activation of BAR/FXR (luciferase expression): 5 μM, 40 hours
T1 sequence (Q62735 1-469): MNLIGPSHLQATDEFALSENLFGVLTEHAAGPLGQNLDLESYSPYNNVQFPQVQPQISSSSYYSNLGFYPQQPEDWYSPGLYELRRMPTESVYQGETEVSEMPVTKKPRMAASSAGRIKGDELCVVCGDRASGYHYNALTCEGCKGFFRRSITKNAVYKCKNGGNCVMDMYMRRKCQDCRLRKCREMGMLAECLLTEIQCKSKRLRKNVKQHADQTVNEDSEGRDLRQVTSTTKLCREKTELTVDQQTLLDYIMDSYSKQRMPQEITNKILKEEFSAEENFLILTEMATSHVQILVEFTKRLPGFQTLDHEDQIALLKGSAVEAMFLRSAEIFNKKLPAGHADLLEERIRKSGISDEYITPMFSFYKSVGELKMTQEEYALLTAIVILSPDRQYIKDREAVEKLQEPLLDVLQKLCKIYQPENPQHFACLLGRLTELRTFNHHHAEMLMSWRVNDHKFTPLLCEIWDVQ
T1 sequence (P19793 1-462): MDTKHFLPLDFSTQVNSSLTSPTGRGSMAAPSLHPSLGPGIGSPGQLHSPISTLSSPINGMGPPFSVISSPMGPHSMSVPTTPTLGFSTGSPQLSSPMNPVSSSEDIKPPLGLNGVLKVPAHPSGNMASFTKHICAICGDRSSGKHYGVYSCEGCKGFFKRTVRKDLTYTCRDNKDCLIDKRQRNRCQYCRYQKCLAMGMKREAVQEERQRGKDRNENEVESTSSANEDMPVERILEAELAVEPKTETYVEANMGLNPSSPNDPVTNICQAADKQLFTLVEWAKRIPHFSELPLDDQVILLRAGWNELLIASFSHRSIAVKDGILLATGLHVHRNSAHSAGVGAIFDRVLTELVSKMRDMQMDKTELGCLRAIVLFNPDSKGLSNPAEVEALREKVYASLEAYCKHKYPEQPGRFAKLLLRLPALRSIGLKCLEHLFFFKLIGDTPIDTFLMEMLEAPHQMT

HepG2 cells = assay: Northern blot analysis of BAR/FXR target genes in HepG2 cells; type: cell-based, human; conditions: for BAR/FXR expression / CYP7A expression / GAPDH expression / transcription of SHP: 24 hours
Experimental: as §1, §2
To verify that AGN34 represses BAR/FXR […], we looked at its effect on BAR/FXR target genes in cultured cells by Northern blot analysis.

| SMILES | IBABP expression (Caco-2 cells) | SHP expression (Caco-2 cells) | EC50 [1] | activation of BAR/FXR (luciferase expression) [1] | BAR/FXR expression (HepG2 cells; 10 μM) | CYP7A expression (HepG2 cells; 10 μM) | GAPDH expression (HepG2 cells; 10 μM) | transcription of SHP (HepG2 cells; 10 μM) | basal SHP levels (Caco-2 cells; 1 μM AGN 34, 24 hours) | CDCA-induced IBABP levels (Caco-2 cells; 100 μM CDCA + 1 μM AGN34, 24 hours) | repression of the BAR/RXR heterodimer [1] | repression of CDCA-activated transcription ([1]; 0.03 μM AGN 34, constant concentration of CDCA) | repression of CDCA-activated BAR-mediated transcription ([1]; 50 μM CDCA + 1 μM AGN 34) | basal activity of luciferase gene expression ([1]; AGN 34 (1 μM) without CDCA) | concentration showing maximal activity (repression) ([1]; constant concentration of CDCA) | basal SHP levels (HepG2 cells; 1 μM AGN 34, 24 hours) | CYP7A expression (HepG2 cells; AGN 34 alone) | CYP7A expression (HepG2 cells; combination of AGN 34 and CDCA) |
| --- | --- | --- | --- | --- | --- | --- | --- | --- | --- | --- | --- | --- | --- | --- | --- | --- | --- | --- |
| Cc1cc2c(cc1/C(=C/c1ccc(C(=O)O)cc1)[Si](C)(C)C)C(C)(C)CCC2(C)C [AGN 29, (Z)-4-[2-(3,5,5,8,8-Pentamethy1-5,6,7,8-tetrahydronaphthalen-2-yl)-2-(trimethylsilyl)vinyl]benzoic Acid] | strongly induced | strongly induced | ~2000 nM | 91 fold | no effect | repress | no effect | induce | – | – | – | – | – | – | – | – | – | – |
| CCCC/C(=C\c1ccc(C(=O)O)cc1)c1ccc2c(c1)C(C)(C)CCC2(C)C [AGN 31, 4-[2-(5,5,8,8-Tetramethyl-5,6,7,8-tetrahydronaphthalen-2-yl)hex-1-enyl]benzoic Acid] | strongly induced | strongly induced | ~2000 nM | 85 fold | no effect | repress | no effect | induce | – | – | – | – | – | – | – | – | – | – |
| CCCCCCOc1c(\C(C)=C/C=C/C(C)=C/C(=O)O)cc(C(C)C)cc1C(C)C [AGN 34, (2E, 4E, 6Z)-7-(2-Hexyloxy-3,5-diisopropylphenyl)-3-methylocta-2,4,6-trienoic Acid] | – | – | – | – | – | – | – | – | did not affect | reduced the induced IBABP levels close to basal levels | ~10 fold | approximately 85% | ~10 fold | did not affect | 1 µM | did not affect | repressed | repressed even further |
